In patent US20080287426A1, “Method of Inducing Resistance to Harmful Fungi” (priority 2005, published 2008):

Tested on: S. tritici
Test: S. tritici infection of wheat seedlings after spraying first leaves (induced resistance)
Format: in vivo, Septoria tritici
Procedure: Wheat seedlings at the 2 leaf stage were used in the study. Plants were grown singly in pots and were split into two batches. First leaves were sprayed with pyraclostrobin at the recommended rate (first leaves of controls were sprayed with distilled water) and the plants to be used for disease assessment were inoculated with S. tritici once leaves had dried. Both first and second leaves were inoculated by spraying with a spore suspension of 1×10^5 spores/ml of distilled water containing a drop of Tween 20. Immediately after inoculation, pots were placed in water-saturated trays and covered with clear polyethene bags for 48 h. Thereafter plants were grown at 18° C. with 12 h/12 h light/dark alternation. Infection intensity was assessed 18 days after inoculation by estimating the % leaf area covered by symptoms.

Substance: pyraclostrobin
- reduced infection on first leaves (after 18 days, compared to non treated controls): 65%
- reduced infection on second leaves (after 18 days, compared to non treated controls, only first leaves sprayed): 61%
- Infection (% leaf area showing symptoms) First leaf (wheat seedlings, first leaves sprayed at the recommended rate, 18 days after inoculation, means ±SE of 10 replicates, pyraclostrobin-resistant isolate): 17 ± 2.3 % leaf area showing symptoms
- reduces S. tritici infection of first and second leaves (wheat seedlings, isolate resistant to pyraclostrobin): > 60%
- Infection (% leaf area showing symptoms) Second leaf (wheat seedlings, only first leaves sprayed at the recommended rate, 18 days after inoculation, means ±SE of 10 replicates, pyraclostrobin-resistant isolate): 16 ± 1.4 % leaf area showing symptoms
